Experimental data: patent US20230118497A1, “PYRAZOLE-CONTAINING POLYCYCLIC DERIVATIVE INHIBITOR, PREPARATION METHOD THEREFOR AND APPLICATION THEREOF” (Shanghai Hansoh Biomedical Co., Ltd., priority 2019, published 2023)

Tests used:
[1] = biological target: T1, 1321N1-hP2X3 receptor (Homo sapiens, UniProt P56373); assay: Calcium ion mobility (FLIPR) in cells stably expressing 1321N1-hP2X3 receptors; type: cell-based; conditions: calcium signal, agonist at EC80
T1 construct: host or cells: 1321N1
T1 sequence (P56373 1-397): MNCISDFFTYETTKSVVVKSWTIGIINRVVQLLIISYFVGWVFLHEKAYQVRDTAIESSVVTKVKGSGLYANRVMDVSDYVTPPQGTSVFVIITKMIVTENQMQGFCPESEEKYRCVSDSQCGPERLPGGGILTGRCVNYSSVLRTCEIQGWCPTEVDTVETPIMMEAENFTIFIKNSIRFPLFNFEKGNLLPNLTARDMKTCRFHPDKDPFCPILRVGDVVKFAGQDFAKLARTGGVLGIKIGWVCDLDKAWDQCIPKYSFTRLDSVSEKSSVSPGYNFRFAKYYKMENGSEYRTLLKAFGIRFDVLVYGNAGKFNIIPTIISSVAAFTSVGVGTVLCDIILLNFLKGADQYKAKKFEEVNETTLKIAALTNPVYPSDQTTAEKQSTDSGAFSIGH
Protocol: Test Example 1. Determination of the Effect of the Compounds of the Present Invention on Calcium Ion Mobility in Cells Stably Expressing 1321N1-hP2X3 Receptors
To determine the inhibitory activity of the compounds on 1321N1-hP2X3 receptor.
Stably transfected cell line: 1321N1-hP2X3 (supplied by Shanghai ChemPartner Chemical Research Co., Ltd.).
(§1) Assay buffer: 1*HBSS+20 mM HEPES;
Cell culture medium: DMEM+10% FBS+75 µg/mL Hygromycin B+300 µg/mL G418;
(§2) Plating medium: DMEM+10% DPBS;
(§3) 0.5*Dye: 10*Dye stock+1.25 Probenecid+1*assay buffer+0.5 U/mL ATP hydrolytic enzyme;
(§4) 2. The cells were cultured to 70%-90% confluency in the cell culture medium at 37° C., 5% CO2. The medium was discarded, and the cells were added with 2 mL of Versene, and the cells were placed in an incubator at 37° C. for 2 to 5 min. The cells were collected by addition of 10 mL of plating medium and counted. The cells were seeded to the 384-well assay plate by addition of 50 μL solution (a density of 1×10^4 cells/well) to each well, and incubated for 16 to 24 hours (at least overnight).
(§5) 3. The medium was discarded, and 30 μL of 1× dye was added. The cells were incubated at 37° C. in the dark for 60 min.
(§6) 4. The compound powder was dissolved in DMSO to obtain a 20 mM stock solution. 180× compound with required concentration was formulated, and diluted in gradient for concentration points.
(§7) 5. Preparation of compound plate: 500 nL of 180× compound was transferred to the compound plate (source plate for FLIPR) using ECHO. 30 μL of assay buffer was added to each well, and the plate was shaken gently for 20 to 40 minutes.
(§8) 6. Determination: 15 μL of 3× compound was taken from each well and added to the cell plate. The samples were added by FLIPR instrument, and the calcium signals were detected. After 15 minutes, 22.5 μL of 3× agonist (EC80 concentration) was added to each well and the calcium signals were detected.
(§9) The calcium signal values were determined by FLIPR. The ratio of the 340/510 nm wavelength signals to 380/510 nm wavelength signals was used as the calculated results for each sampling time point in the experiment. The calculation of maximum minus minimum was derived from the ratio signal curve.
(§10) The percent inhibition rate and ten-point concentration data were fitted to the parametric nonlinear logistic equation by using GraphPad prism to calculate the IC50 values of the compounds.

[2] = biological target: T2, 1321N1-hP2X2/3 receptor (Homo sapiens, UniProt P56373+Q9UBL9); assay: Calcium ion mobility (FLIPR) in cells stably expressing 1321N1-hP2X2/3 receptors; type: cell-based; conditions: calcium signal, agonist at EC80
T2 construct: host or cells: 1321N1
T2 sequence (P56373 1-397): T1 sequence (P56373 1-397)
T2 sequence (Q9UBL9 1-471): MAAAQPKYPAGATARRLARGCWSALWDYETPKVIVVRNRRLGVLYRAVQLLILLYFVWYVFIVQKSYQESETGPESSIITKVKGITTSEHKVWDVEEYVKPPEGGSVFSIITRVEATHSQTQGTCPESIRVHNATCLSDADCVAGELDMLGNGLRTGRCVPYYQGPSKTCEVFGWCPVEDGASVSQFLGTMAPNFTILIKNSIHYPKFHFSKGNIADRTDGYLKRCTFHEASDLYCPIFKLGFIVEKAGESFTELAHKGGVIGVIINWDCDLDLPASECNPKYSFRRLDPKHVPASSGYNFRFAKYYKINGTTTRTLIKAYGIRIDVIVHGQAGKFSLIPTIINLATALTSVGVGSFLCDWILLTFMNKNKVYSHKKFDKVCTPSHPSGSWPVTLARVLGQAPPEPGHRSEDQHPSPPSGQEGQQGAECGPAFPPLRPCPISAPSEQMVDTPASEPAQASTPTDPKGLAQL
Protocol: Test Example 2. Determination of the Effect of the Compounds of the Present Invention on Calcium Ion Mobility in Cells Stably Expressing 1321N1-hP2X2/3 Receptors
To determine the inhibitory activity of the compounds on 1321N1-hP2X2/3 receptor.
Stably transfected cell line: 1321N1-hP2X2/3 (supplied by Shanghai ChemPartner Chemical Research Co., Ltd.).
as §1
Cell culture medium: DMEM+10% FBS+75 μg/mL Hygromycin B+150 μg/mL G418;
as §2, §3, §4, §5, §6, §7, §8, §9, §10

[3] = Pharmacokinetic assay in Balb/C mice; type: in vivo; conditions: male, mouse, po, p.o. 5 mg/kg, plasma, 0.5% CMC-Na (1% Tween 80)
Protocol: Test Example 3. Pharmacokinetic Assay in Balb/C Mice
Balb/C mice were used as test animals. The pharmacokinetic behavior of the compounds of Examples was studied in mouse body (plasma) by orally administration at a dose of 5 mg/kg.
Male Balb/C mice (6 mice per group), purchased from Shanghai Jiesijie Laboratory Animal Co., LTD, with Certificate No.: SCXK (Shanghai) 2013-0006 N0.311620400001794.
5 g of hydroxyethyl cellulose (HEC, CMC-Na, viscosity: 800-1200 Cps) was weighed and dissolved in 1000 mL of purified water, followed by addition of 10 g of Tween80.
After an overnight fast, male Balb/C mice were administered p.o. with the test compound at a dose of 5 mg/kg and a volume of 10 mL/kg.
0.04 mL of blood was taken from the orbit of the mouse before administration and at 0, 0.5, 1, 2, 4, 6, 8 and 24 hours after administration. The samples were stored in EDTA-K2 tubes, and centrifuged for 6 minutes at 4° C., 6000 rpm to separate the plasma. The plasma samples were stored at −80° C.
1) 160 μL of acetonitrile was added to 20 μL of the plasma sample for precipitation, and then the mixture was centrifuged at 3500×g for 5 to 20 minutes. 2) After the above process, 100 μL of the supernatant was taken to analyze the concentration of the test compound by LC/MS/MS.
2.7 Liquid Chromatography Analysis • Liquid chromatography condition: Shimadzu LC-20AD pump • Mass spectrometry condition: AB Sciex API 4000 mass spectrometer • Chromatographic column: phenomenex Gemiu 5 um C18 50×4.6 mm • Mobile phase: Eluent A was 0.1% formic acid in water, and Eluent B was acetonitrile • Flow rate: 0.8 mL/min • Elution time: 0-4.0 minutes the eluent is as follows:
The main parameters of pharmacokinetics were calculated by WinNonlin 8.2.

[4] = tested on: P2X3/P2X2/3; conditions: background; cited from earlier work
[5] = clinical stage; cited from earlier work

Structure (SMILES)	IC50 [1] [nM]	IC50 [2] [µM]	also measured
CC(C)(C)c1cc2n(CC(=O)Nc3ccc(F)cn3)c(=O)c3cccnc3n2n1 [Example 1, 2-(2-(Tert-butyl)-5-oxopyrazolo[1,5-a]pyrido[3,2-e]pyrimidin-4(5H)-yl)-N-(5-fluoropyridin-2-yl)acetamide]	16.2	64.4	
Cc1cc(-c2cc3n(CC(=O)Nc4ccc(F)cn4)c(=O)c4cccnc4n3n2)c(C)cn1 [Example 21]	305		
CC(C)(C)c1cc2n(CC(=O)Nc3ccc(F)cn3)c(=O)c3ccc(C(F)(F)F)nc3n2n1 [Example 30, 2-(2-(Tert-butyl)-5-oxo-8-(trifluoromethyl)pyrazolo[1,5-a]pyrido[3,2-e]pyrimidin-4(5H)-yl)-N-(5-fluoropyridin-2-yl)acetamide]	88.2	14.5	AUC(0-t) ([3]; read-out: Area under curve AUC0-t): 10900 ng·h/mL; MRT inf ([3]; read-out: Average residence time MRT0-∞): 2.16 h; half-life ([3]; read-out: Half life t1/2 (converted)): 81.6 min; Tmax ([3]; read-out: Peak time tmax): 30 min; Cmax ([3]; read-out: Plasma concentration Cmax): 3550 ng/mL
O=C(Cn1c(=O)c2ccc(C(F)(F)F)nc2n2nc(C3CC3)cc12)Nc1ccc(F)cn1 [Example 35, 2-(2-Cyclopropyl-5-oxo-8-(trifluoromethyl)pyrazolo[1,5-a]pyrido[3,2-e]pyrimidin-4(5H)-yl)-N-(5-fluoropyridin-2-yl)acetamide]	77.7	> 30	
CC(C)c1cc2n(CC(=O)Nc3ccc(F)cn3)c(=O)c3ccc(C(F)(F)F)nc3n2n1 [Example 36, N-(5-Fluoropyridin-2-yl)-2-(2-isopropyl-5-oxo-8-(trifluoromethyl)pyrazolo[1,5-a]pyrido[3,2-e]pyrimidin-4(5H)-yl)acetamide]	185		
O=C(Cn1c(=O)c2ccc(C(F)(F)F)nc2n2nc(C3CCCC3)cc12)Nc1ccc(F)cn1 [Example 37, 2-(2-Cyclopentyl-5-oxo-8-(trifluoromethyl)pyrazolo[1,5-a]pyrido[3,2-e]pyrimidin-4(5H)-yl)-N-(5-fluoropyridin-2-yl)acetamide]	337		
Cc1cc(-c2cc3n(CC(=O)Nc4ccc(F)cn4)c(=O)c4ccc(C(F)(F)F)nc4n3n2)c(C)cn1 [Example 40]	292	16.7	
CC1(c2cc3n(CC(=O)Nc4ccc(F)cn4)c(=O)c4ccc(C(F)(F)F)nc4n3n2)CC1 [Example 59, N-(5-Fluoropyridin-2-yl)-2-(2-(1-methylcyclopropyl)-5-oxo-8-(trifluoromethyl)pyrazolo[1,5-a]pyrido[3,2-e]pyrimidin-4(5H)-yl)acetamide]	259	32.2	
O=C(Cn1c(=O)c2ccc(C(F)(F)F)nc2n2nc(C3CCCCC3)cc12)Nc1ccc(F)cn1 [Example 62, 2-(2-Cyclohexyl-5-oxo-8-(trifluoromethyl)pyrazolo[1,5-a]pyrido[3,2-e]pyrimidin-4(5H)-yl)-N-(5-fluoropyridin-2-yl)acetamide]	385		
Cc1cnccc1-c1cc2n(CC(=O)Nc3ccc(F)cn3)c(=O)c3ccc(C(F)(F)F)nc3n2n1 [Example 63, N-(5-Fluoropyridin-2-yl)-2-(2-(3-methylpyridin-4-yl)-5-oxo-8-(trifluoromethyl)pyrazolo[1,5-a]pyrido[3,2-e]pyrimidin-4(5H)-yl)acetamide]	238		
Cc1ncccc1-c1cc2n(CC(=O)Nc3ccc(F)cn3)c(=O)c3ccc(C(F)(F)F)nc3n2n1 [Example 64, N-(5-Fluoropyridin-2-yl)-2-(2-(2-methylpyridin-3-yl)-5-oxo-8-(trifluoromethyl)pyrazolo[1,5-a]pyrido[3,2-e]pyrimidin-4(5H)-yl)acetamide]	149		
O=C(Cn1c(=O)c2ccc(C(F)(F)F)nc2n2nc(C(F)(F)F)cc12)Nc1ccc(F)cn1 [Example 66, N-(5-Fluoropyridin-2-yl)-2-(5-oxo-2,8-bis(trifluoromethyl)pyrazolo[1,5-a]pyrido[3,2-e]pyrimidin-4(5H)-yl)acetamide]	130		
O=C(Cn1c(=O)c2ccc(C(F)(F)F)nc2n2nc(C(=O)N3CCC3)cc12)Nc1ccc(F)cn1 [Example 74, 2-(2-(Azetidine-1-carbonyl)-5-oxo-8-(trifluoromethyl)pyrazolo[1,5-a]pyrido[3,2-e]pyrimidin-4(5H)-yl)-N-(5-fluoropyridin-2-yl)acetamide]	203		
O=C(Cn1c(=O)c2ccc(C(F)(F)F)nc2n2nc(Cl)cc12)Nc1ccc(F)cn1 [Example 79, 2-(2-Chloro-5-oxo-8-(trifluoromethyl)pyrazolo[1,5-a]pyrido[3,2-e]pyrimidin-4(5H)-yl)-N-(5-fluoropyridin-2-yl)acetamide]	34.7		
O=C(Cn1c(=O)c2ccc(C(F)(F)F)nc2n2nccc12)Nc1ccc(Cl)cn1 [Example 83, N-(5-Chloropyridin-2-yl)-2-(5-oxo-8-(trifluoromethyl)pyrazolo[1,5-a]pyrido[3,2-e]pyrimidin-4(5H)-yl)acetamide]	137	> 30	
COc1cc(C(C)C)c(Oc2cnc(N)nc2N)cc1S(N)(=O)=O [MK-7264]			selectivity to P2X3/P2X2/3 [4]: low selectivity; side effects [5]: loss of taste
